Counter-ions that a name gives are not always drawn. Like-named read-outs stand apart in the source and are kept apart here.
Legend:
opiate receptor = opiate receptor assay of Pert et al.; assay type: binding
Source text: (Raven Press, New York, N.Y.), at pp. 33-43. […] Int. Pharmacodyn.

[1] = induced Straub tail method (antagonist activity); settings: for Antagonism (μmol/kg) Straub Tail: in vivo
[2] = reversal of morphine-induced analgesia in the tail flick assay; settings: reversal of analgesia induced by morphine
δ receptor [3] = biological target: T1, δ receptor (Homo sapiens, UniProt P41143); experiment: biochemical; assay type: biochemical
T1 construct: expressed in transfected cells; host or cells: CHO cells

μ receptor [4] = biological target: T2, μ receptor (Homo sapiens, UniProt P35372); experiment: biochemical; assay type: biochemical
κ receptor [5] = biological target: T3, κ receptor (Homo sapiens, UniProt P41145); experiment: biochemical; assay type: biochemical
T3 construct: expressed in transfected cells; host or cells: CHO cells

μ receptor [6] = biological target: T2, μ receptor; experiment: pA2 analysis of antagonist activity against DAMGO dose response curve; assay type: biochemical
κ receptor [7] = biological target: T3, κ receptor; experiment: biochemical; assay type: binding
[8] = in animals; cited from earlier work
μ receptor [9] = biological target: T2, μ receptor; experiment: biochemical; assay type: binding
δ receptor [10] = biological target: T1, δ receptor; experiment: biochemical; assay type: binding
[11] = mouse jump test (physical dependence); assay type: in vivo; settings: 30 min after 100 mg/kg naloxone on day 4; test compound ip days 1-3
Procedure: Antagonist activity, considered a measure of nonaddictiveness, was measured by the opiate receptor assay of Pert et al. (1974) Mol. Pharmacol. 10:868. Antagonist activity was also measured using the induced Straub tail method as described by DeGraw et al. (1978) J. Med Chem. 21:415, and Blumberg et al. (1973) Advances in Chemical Psychopharmacology, Vol. 8, M. Braudy et al. eds. (Raven Press, New York, N.Y.), at pp. 33-43. A direct and simple assay measuring physical dependence is the mouse jump test described by Saelens et al. (1971) Arch. Int. Pharmacodyn. 190:213.
Physical dependence, a more direct measure of non-addictive properties than antagonist activity, was evaluated using the mouse jump test. Mice were injected intraperitoneally 5 times on day 1 with increasing doses of test compound ranging from 8-100 mg/kg body weight. On days 2 and 3 the mice were given 100 mg/kg 4 times. On day 4 all mice received 100 mg/kg of the antagonist naloxone in a single dose. The mice were then caged for 30 min, and a record was made of the number jumping during this time.

[12] = +NaCl, read-out: Opiate Receptor Inhibition (IC50, nM) +NaCl
[13] = −NaCl, read-out: Opiate Receptor Inhibition (IC50, nM) −NaCl

T3 sequence (P41145 whole entry): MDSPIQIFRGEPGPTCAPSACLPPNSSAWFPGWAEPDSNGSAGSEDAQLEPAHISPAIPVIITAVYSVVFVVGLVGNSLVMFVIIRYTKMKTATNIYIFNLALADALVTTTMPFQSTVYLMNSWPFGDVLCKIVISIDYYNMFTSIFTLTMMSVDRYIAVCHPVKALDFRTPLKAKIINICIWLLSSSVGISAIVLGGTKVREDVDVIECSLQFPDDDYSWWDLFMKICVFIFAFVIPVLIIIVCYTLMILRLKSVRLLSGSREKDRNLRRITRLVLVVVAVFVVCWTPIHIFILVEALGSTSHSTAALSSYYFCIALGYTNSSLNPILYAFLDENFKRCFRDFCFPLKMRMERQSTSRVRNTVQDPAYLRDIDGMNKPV
T1 sequence (P41143 whole entry): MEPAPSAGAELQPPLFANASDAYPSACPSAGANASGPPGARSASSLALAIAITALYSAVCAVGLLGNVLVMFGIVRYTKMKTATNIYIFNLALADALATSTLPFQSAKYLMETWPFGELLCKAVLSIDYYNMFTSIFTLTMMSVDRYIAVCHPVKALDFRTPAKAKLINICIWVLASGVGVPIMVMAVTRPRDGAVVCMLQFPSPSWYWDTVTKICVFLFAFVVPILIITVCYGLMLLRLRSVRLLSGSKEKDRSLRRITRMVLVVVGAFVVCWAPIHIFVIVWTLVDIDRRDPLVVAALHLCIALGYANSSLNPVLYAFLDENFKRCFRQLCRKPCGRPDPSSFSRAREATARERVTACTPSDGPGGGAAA
T2 sequence (P35372 whole entry): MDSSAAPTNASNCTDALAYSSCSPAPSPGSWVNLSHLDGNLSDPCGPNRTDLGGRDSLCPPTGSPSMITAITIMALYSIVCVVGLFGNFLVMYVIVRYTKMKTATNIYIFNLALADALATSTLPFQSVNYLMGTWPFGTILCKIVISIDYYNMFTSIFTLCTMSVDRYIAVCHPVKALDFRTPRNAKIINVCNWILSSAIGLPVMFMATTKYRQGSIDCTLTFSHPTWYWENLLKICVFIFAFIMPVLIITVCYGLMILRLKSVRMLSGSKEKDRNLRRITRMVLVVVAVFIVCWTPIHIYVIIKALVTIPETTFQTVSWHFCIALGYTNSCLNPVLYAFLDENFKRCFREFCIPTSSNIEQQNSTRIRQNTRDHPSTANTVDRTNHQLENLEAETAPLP

Work on `CC(C1CC1)N1CCC23c4c5ccc(O)c4OC2C(O)C=CC3C1C5` (mixture of isomers) (as salt: salt) [N-α-methylcyclopropylmethyl-normorphine (mixture)] [N-[(1R,S)-1-Cyclopropylethyl]-Normorphine] yielded a melting point of 248 to 250 °C.
With `CC(C1CC1)N1CCC23c4c5ccc(O)c4OC2C(O)C=CC3C1C5` (mixture of isomers) [N-α-methylcyclopropylmethyl-normorphine (mixture)] [N-[(1R,S)-1-Cyclopropylethyl]-Normorphine] the IC50 (opiate receptor; [12]) was 6 nM, the IC50 (opiate receptor; [13]) was 3 nM and the “antagonist potency relative to nalorphine” value ([1]; Straub tail method) was “about one-fourth”. For the same molecule, the “Antagonism (μmol/kg) Straub Tail” value [1] was 4.5 µmol/kg.
With `CC(C1CC1)N1CCC23c4c5ccc(O)c4OC2C(O)C=CC3C1C5` (single isomer, unassigned; diastereomer b) [N-α-methylcyclopropylmethyl-normorphine (S isomer), N-methylcyclopropylmethyl-normorphine (diastereomer B)] the melting point was 209 to 210 °C, the “Antagonism (μmol/kg) Tail Flick” value [2] was >213 µmol/kg and the IC50 (opiate receptor; [13]) was 0.23 nM.
For `C[C@H]1[C@H]2Cc3ccc(O)cc3[C@]1(C)CCN2CC1CC1` [Cyclazocine, reference compound], the EC50 (δ receptor [3]) was 2.9 ± 1.9 nM, the “δ % Stim” value (δ receptor [3]) was 82 ± 9% and the “μ % Stim” value (μ receptor [4]) was 33 ± 18%. For the same molecule, the EC50 (κ receptor [5]) was 0.8 ± 0.2 nM and the “κ % Stim” value (κ receptor [5]) was 80%.
With `C[C@@H](NC(=O)[C@@H](N)Cc1ccc(O)cc1)C(=O)NCC(=O)N(C)[C@@H](Cc1ccccc1)C(=O)NCCO` [DAMGO, [D-Ala^2, NMePhe^4, Gly^5-ol]-enkephalin] the “κ % Stim” value (κ receptor [5]) was 62%.
With `CCC(C)N1CCC23c4c5ccc(O)c4OC2C(O)C=CC3C1C5` [N-sec-butyl normorphine (R), reference compound] the IC50 (opiate receptor; [12]) was 110 nM, the IC50 (opiate receptor; [13]) was 60 nM and the “Antagonism (μmol/kg) Straub Tail” value [1] was 16.2 µmol/kg.
For `CCC(C)N1CCC23c4c5ccc(O)c4OC2C(O)C=CC3C1C5` [N-sec-butyl normorphine (S), reference compound], the IC50 (opiate receptor; [12]) was 62 nM, the IC50 (opiate receptor; [13]) was 28 nM and the “Antagonism (μmol/kg) Straub Tail” value [1] was 7.4 µmol/kg.
With `C[C@H](C1CC1)N1CC[C@]23c4c5ccc(O)c4O[C@H]2[C@@H](O)C=C[C@H]3[C@H]1C5` [compound 1, N-[(1R)-1-cyclopropylethyl]-normorphine] the Kb (μ receptor [6]) was 1.43 ± 0.16 nM, the Slope (μ receptor [6]; n=6) was −1.04 and the pA2 (μ receptor [6]; n=6) was 8.84±0.06. For the same molecule, the Ki (κ receptor [7]) was 0.43 ± 0.11 nM, the respiratory depression [8] was “free of respiratory depression” and the therapeutic index [8] was “high therapeutic index”. For the same molecule, the “Antagonism (μmol/kg) Tail Flick” value [2] was >213 µmol/kg, the EC50 (δ receptor [3]) was 39.6 ± 6.3 nM and the “functional character at δ” value (δ receptor [3]) was “partial agonist”. For the same molecule, the “δ % Stim” value (δ receptor [3]) was 22 ± 6%, the Ki (μ receptor [9]) was 0.35 ± 0.06 nM and the EC50 (μ receptor [4]) was > 10000 nM. The “functional character at the μ receptor” value (μ receptor [4]) was “pure antagonist”, the EC50 (κ receptor [5]) was 15.2 ± 2.5 nM and the “functional character at κ” value (κ receptor [5]) was “partial agonist”. The “κ % Stim” value (κ receptor [5]) was 63 ± 1%, the Ki (δ receptor [10]) was 3.97 ± 0.98 nM and the “affinity in the opiate assay relative to N-sec-butyl-normorphine” value (opiate receptor; relative to N-sec-butyl-normorphine) was “about 122 times”. The “affinity in the opiate assay relative to morphine” value (opiate receptor; relative to morphine) was “over 43 times” and the IC50 (opiate receptor; [13]) was 7 nM.
With `CN1CC[C@]23c4c5ccc(O)c4O[C@H]2[C@@H](O)C=C[C@H]3[C@H]1C5` [morphine] the “Antagonism (μmol/kg) Tail Flick” value [2] was 2 µmol/kg, the “number of mice jumping” value [11] was 10/10 and the “Antagonism (μmol/kg) Straub Tail” value [1] was 1 µmol/kg.
In the case of `C=CCN1CC[C@]23c4c5ccc(O)c4O[C@H]2[C@@H](O)C=C[C@H]3[C@H]1C5` [nalorphine, reference compound], the “Antagonism (μmol/kg) Tail Flick” value [2] is reported as 2.04 µmol/kg, the IC50 (opiate receptor; [12]) is reported as 6 nM and the IC50 (opiate receptor; [13]) is reported as 2 nM.
In the case of (−)SKF 10,047, the “κ % Stim” value (κ receptor [5]) is reported as 49 ± 13% and the EC50 (κ receptor [5]; read-out: κ EC50) is reported as 5.38 ± 2.3 nM.
With “[D-Pen^2,D-Pen^5]-enkephalin [DPDPE, reference compound]” the “κ % Stim” value (κ receptor [5]) was 77%.

— patent US7629355B2 (priority 2003, dated 2009)
